Read-outs that look alike come from different tables or passages of the source.
Key:
RPMI-8226 = assay: MM cell viability assay (MTS proliferation); format: cell-based; details: Homo sapiens, 72 hours, average of n ≥ 8 determinations, read-out: MM cells EC50, RPMI-8226
recombinant human GGPPS = recombinant human GGPPS (Homo sapiens (Human), UniProt O95749); assay: In vitro hGGPPS inhibition assay; format: biochemical; details: for IC50: wild-type hGGPPS enzyme, average of n ≥ 3 determinations; for selectivity improved for inhibiting hGGPPS vs hFPPS: starting from the original hits, e.g. C-5
recombinant human GGPPS, sequence (O95749 whole entry): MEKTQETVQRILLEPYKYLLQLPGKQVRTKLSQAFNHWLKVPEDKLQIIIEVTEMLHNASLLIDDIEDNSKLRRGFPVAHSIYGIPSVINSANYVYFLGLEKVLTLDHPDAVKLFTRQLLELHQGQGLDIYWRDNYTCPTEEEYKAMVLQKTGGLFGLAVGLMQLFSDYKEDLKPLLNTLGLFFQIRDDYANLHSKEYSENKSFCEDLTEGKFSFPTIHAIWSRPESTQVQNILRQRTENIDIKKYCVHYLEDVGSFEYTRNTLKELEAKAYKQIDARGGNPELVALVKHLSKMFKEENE

hFPPS [1] = biological target: T1, hFPPS (Homo sapiens (Human), UniProt P14324); assay: biochemical
T1 sequence (P14324 whole entry): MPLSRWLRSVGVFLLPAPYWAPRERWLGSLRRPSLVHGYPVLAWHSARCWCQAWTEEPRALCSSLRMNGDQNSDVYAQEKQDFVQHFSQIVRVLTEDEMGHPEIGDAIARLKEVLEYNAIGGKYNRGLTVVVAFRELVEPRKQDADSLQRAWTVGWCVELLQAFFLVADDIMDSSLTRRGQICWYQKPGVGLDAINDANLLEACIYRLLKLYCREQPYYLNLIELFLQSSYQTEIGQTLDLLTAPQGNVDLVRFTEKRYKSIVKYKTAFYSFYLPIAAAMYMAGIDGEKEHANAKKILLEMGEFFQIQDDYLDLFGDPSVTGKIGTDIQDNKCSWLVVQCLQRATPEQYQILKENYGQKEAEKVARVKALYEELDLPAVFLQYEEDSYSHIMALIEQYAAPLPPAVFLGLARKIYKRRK

JJN3 = assay: MM cell viability assay (MTS proliferation); format: cell-based; details: Homo sapiens, JJN-3; 72 hours, average of n ≥ 8 determinations; read-out: MM cells EC50, JJN3
Protocol: (§1) Various MM cancer cell lines (Table 3 and FIGS. 5 and 6) were cultured in RPMI-1640 medium supplemented with 10% fetal bovine serum (Gibco BRL, Gaithersburg, Md.) supplemented with 2 mM L-glutamine in a 5% CO2 atmosphere at 37° C. EC50 values for each target compound were determined using a commercial MTS proliferation assay (Promega, Madison, Wis.) following the manufacturer's instructions. Briefly, compounds were diluted directly into culture medium and then applied to cells that were seeded in 96-well plates at a density 5,000 cells per well. Cells were incubated with the indicated final concentration of compound in a total media volume of 100 μl/well for 72 hours prior to the addition of the MTS reagent. Plates were incubated at 37° C. in the presence 5% CO2 for 2 hours prior to recording OD490 using a Tecan Infinite M200Pro microplate reader. Results were analyzed to obtain dose-response curves and EC50 calculations using GraphPad PRISM version 5 for the MacIntosh (GraphPad Software, San Diego, Calif.).

KMS28PE = assay: MM cell viability assay (MTS proliferation); format: cell-based; details: Homo sapiens, KMS-28PE; 72 hours, average of n ≥ 8 determinations; read-out: MM cells EC50, KMS28PE
Protocol: as §1

[2] = system: acute monocytic leukemia (MOLM-13) cells; assay: Cancer cell viability; format: cell-based, human; details: compared to zolendronate (ZOL), FIG. 4
Protocol: (§2) NCI-ADR-RES cells were obtained from National Cancer Institute (NCI) and all other cell lines were obtained from the American Type Culture Collection (ATCC). NHBE cells were maintained in Bronchial Epithelial Cell Growth Medium (BEGM) supplemented with 10% FBS (Multicell) and 2 mM L-glutamine (Gibco/Life Technologies). All other cells were maintained in culture using Roswell Park Memorial Institute (RPMI) 1640 media supplemented with 10% FBS (Multicell), Penicillin (100 U/mL), Streptomycin (100 ug/mL) and 2 mM L-glutamine (Gibco/Life Technologies). Cells were plated in logarithmic growth phase in each well of clear bottom multiwell plates and cultured 16-24 h before drug treatment. […]
(§3) Cell viability was determined by cellular quantitation of adenosine triphosphate (ATP) using the CellTiter-Glo Luminescent Cell Viability Assay Kit (Promega Corporation, Cat. No. G7571). Briefly, the CellTiter-Glo «one-mix-measure» reagent, containing both the cell permeabilizing agent and the Ultra-Glo luciferase, was added to the cell culture according to manufacturers' instructions allowing the free ATP to be released from viable cells and subsequently converted into luminescence. The luminescence generated in the reaction is directly proportional to cell viability and was quantified in a luminometer (PHERAstar FS, BMG Labtech) […]

[3] = system: chronic myelogenous leukemia (K562) cells; assay: Cancer cell viability; format: cell-based, human; details: compared to zolendronate (ZOL), FIG. 4
Protocol: as §2, §3

hFPPS [4] = biological target: T1, hFPPS; details: read-out: hFPPS IC50
[5] = system: phosphorylated Tau protein (P-Tau); assay: Phosphorylation of the tau protein in immortalized human neurons; format: cell-based; details: immortalized human neurons (SH-SYSY)
[6] = system: multiple myeloma cell line RPMI-8226; assay: Apoptosis assay in multiple myeloma cells (flow cytometry); format: cell-based, human; details: 100 nM, 500 nM, and 1 μM, 72 h, FIG. 6
Protocol: To determine the ability of compounds of the application to induce MM cell lines to undergo apoptosis, cells were seeded at a density of 7.5×10^5/mL in medium supplemented with 10% FBS with increasing concentrations of compound (i.e. compound that inhibits hGGPPS) or vehicle alone. Following a 72 h incubation, apoptosis was determined by double staining with APC Annexin V (BD Biosciences, Mississauga ON) and eFluor 780 Viability dye (ThermoFisher Scientific) according to the manufacturer's directions. Stained samples were acquired on a BD FACSCanto II instrument (BD Biosciences, Mississauga ON) and post-acquisition analyses were performed using FlowJo (V10) software. Apoptosis of multiple myeloma cells was also determined by flow cytometry by double staining cells with Allophycocyanin (APC) conjugated Annexin V and a V450 conjugated Mouse Anti-Human CD138 monoclonal antibody, following the manufacturer's instructions (BD Biosciences, Mississauga ON).

in vitro [7] = details: male, CD-1, mouse, microsomes
[8] = system: normal human bronchial cells (NHBE); assay: Cell viability (CellTiter-Glo), normal cells; format: cell-based; details: compared to doxorubicin, FIG. 3a
Protocol: as §2, §3

in vitro [9] = details: Sprague-Dawley, rat, microsomes
in vitro [10] = details: human, microsomes
[11] = Lipophilicity by C-18 reversed phase HPLC relative retention; details: versus zolodronic acid
SH-SYSY neurons = assay: LDH toxicity assay in immortalized human neurons; format: cell-based

Row | EC50 (RPMI-8226) [µM] | IC50 (recombinant human GGPPS) [µM] | IC50 (hFPPS [4]) [µM] | Ratio of hFPPS IC50 vs hGGPPS IC50 (recombinant human GGPPS) | SMILES | EC50 (JJN3) [µM] | EC50 (KMS28PE) [µM] | also measured
1 | 0.2 | 0.085 |  |  | COc1ccc(NC(=O)c2cccc(-c3nc(NC(P(=O)(O)O)P(=O)(O)O)c4sccc4n3)c2)cc1F [Compound I-42, (((2-(3-((3-fluoro-4-methoxyphenyl)carbamoyl)phenyl)thieno[3,2-d]pyrimidin-4-yl)amino)methylene)bis(phosphonic acid)] |  |  | 
2 | 0.12 |  |  |  | Cc1ccc(C(=O)Nc2cccc(-c3nc(NC(P(=O)(O)O)P(=O)(O)O)c4ccsc4n3)c2)cc1 [Compound I-18, (((2-(3-(4-methylbenzamido)phenyl)thieno[2,3-d]pyrimidin-4-yl)amino)methylene)bis(phosphonic acid)] | 0.6 | 0.62 | IC50 (hFPPS [1]): 2.4 µM
3 | 0.14 | 0.065 |  |  | COc1ccc(NC(=O)c2cccc(-c3nc(NC(P(=O)(O)O)P(=O)(O)O)c4ncsc4n3)c2)cc1F [Compound I-43] |  |  | 
4 | 0.11 | 0.053 | 3 | 57 | O=C(Nc1ccccc1)c1cccc(-c2nc(NC(P(=O)(O)O)P(=O)(O)O)c3ccsc3n2)c1 [Compound I-6, (((2-(3-(phenylcarbamoyl)phenyl)thieno[2,3-d]pyrimidin-4-yl)amino)methylene)bis(phosphonic acid)] | 0.34 | 0.7 | blocking viability of cancer cells [2]: more effective; blocking viability of cancer cells [3]: more effective; selectivity improved for inhibiting hGGPPS vs hFPPS (recombinant human GGPPS): ~55 fold
5 | 0.1 | 0.064 | 2 | 31 | O=C(Nc1cccc(-c2nc(NC(P(=O)(O)O)P(=O)(O)O)c3ccsc3n2)c1)c1ccccc1 [Compound I-13] | 0.5 | 0.55 | selectivity improved for inhibiting hGGPPS vs hFPPS (recombinant human GGPPS): approximately 30 fold
6 | 0.38 | 0.085 | 1 | 12 | COc1ccc(C(=O)Nc2cccc(-c3nc(NC(P(=O)(O)O)P(=O)(O)O)c4ccsc4n3)c2)cc1 [Compound I-5, (((2-(3-(4-methoxybenzamido)phenyl)thieno[2,3-d]pyrimidin-4-yl)amino)methylene)bis(phosphonic acid)] | 1.3 | 1.4 | LDH Toxicity Assay (relative toxicity compared to the control samples) (SH-SYSY neurons): None observed; Reduction in P-Tau/Total-tau protein [5]: 43%

Continued, molecule first:

Row | SMILES | EC50 (RPMI-8226) [µM] | IC50 (recombinant human GGPPS) [µM] | IC50 (hFPPS [4]) [µM] | Ratio of hFPPS IC50 vs hGGPPS IC50 (recombinant human GGPPS) | EC50 (JJN3) [µM] | EC50 (KMS28PE) [µM] | also measured
7 | O=P(O)(O)C(O)(Cn1ccnc1)P(=O)(O)O [ZOL, zoledronic acid, reference compound] |  |  |  |  | 5 | 6.4 | Reduction in P-Tau/Total-tau protein [5]: 50%
8 | COC(C(=O)Nc1cccc(-c2nc(NC(P(=O)(O)O)P(=O)(O)O)c3ccsc3n2)c1)c1ccccc1 (stereo not drawn) [Compound I-24] |  |  |  |  |  |  | apoptosis [6]: induce apoptosis
9 | O=P(O)(O)C(Nc1ncnc2sc(-c3ccccc3)cc12)P(=O)(O)O [Compound C-10, reference compound] |  |  | 0.2 |  |  |  | 
10 | O=P(O)(O)C(Nc1nc(-c2ccccc2)nc2sccc12)P(=O)(O)O [Compound C-5, reference compound] |  | 0.082 |  | ~7 |  |  | IC50 (hFPPS [1]): 0.54 µM
11 | O=P(O)(O)C(Nc1ncnc2sc(-c3ccc(OC4CC4)cc3)cc12)P(=O)(O)O [Compound C-13, reference compound] | > 50 | ~10000 | 0.014 | >7 × 10^−5 | > 10 |  | 
12 | COc1ccc(NC(=O)c2cccc(-c3nc(NC(P(=O)(O)O)P(=O)(O)O)c4ccsc4n3)c2)cc1F [Compound I-37, (((2-(3-((3-fluoro-4-methoxyphenyl)carbamoyl)phenyl)thieno[2,3-d]pyrimidin-4-yl)amino)methylene)bis(phosphonic acid)] | 0.15 |  |  |  | 0.51 | 0.17 | half-life (in vitro [7]): 2.13 h; toxicity to normal human bronchial cells [8]: less toxic; half-life (in vitro [9]): 3.12 h; half-life (in vitro [10]): 2.57 h; difference in relative retention time on C-18 reversed phase HPLC column (lipophilicity) [11]: more than 7 min
13 | O=P(O)(O)C(O)(Cc1cccnc1)P(=O)(O)O [RIS, Risedronic acid, reference compound] |  |  |  |  | 10 | 10.6 | 
14 | O=P(O)(O)C(Nc1ncnc2sc(-c3ccc(C(F)(F)F)cc3)cc12)P(=O)(O)O [Compound C-12, reference compound] | > 50 | ~10000 | 0.023 | >4 × 10^−5 | > 10 |  | 
